Measured values published in patent US9616107B2, “Therapy for kidney disease and/or heart failure” (priority 2011, dated 2017).
Ends that are not written are not given here.

Assay: Pharmacodynamic study of VD in canines: 10-day subcutaneous infusion in high-rate paced heart failure model
Format: in vivo, canine
Conditions: dog, plasma; Day 10 of continuous vessel dilator infusion 100 ng/kg·min SC; Day 0 0.66+/−0.37; read-out: Pre-proANF (56-92) plasma concentration (radioimmunoassay)
Protocol: A pharmaceutical formulation of VD was prepared in a Tris buffer. 16.0 g glycerol, 6.05 g tris-(hydroxymethyl)-aminomethane (“Tris”), 2.50 g meta cresol were mixed in a 1.00 L volumetric flask. Approximately 900 mL nanopure water was added to the volumetric flask and the mixture was magnetically stirred to reach complete dissolution. 4 normal hydrochloric acid was used to adjust pH to 7.3 at 25° C. Then, the flask was filled to 1 L mark with nanopure water. The pH was rechecked and verified to be 7.3 at 25° C. The pH 7.3 Tris buffer was stored at 2-8° C. until use.
Lyophilized VD peptide (Bachem) was weighted into a glass vial and dissolved into a known volume of the Tris buffer to a concentration between 1 mg/mL and 10 mg/mL. The VD peptide was dissolved by gentle mixing and the solution was allowed to rest for between 20 and 30 minutes. The pH of the solution was checked and adjusted to 7.3 with 0.1 N sodium hydroxide. […]
Seven days prior to the beginning of HRP (Day −7), all dogs were instrumented for ventricular pacing with an IPG (implantable pulse generator) including an RA (right atrium) and RV (right ventricle) lead, and a DSI (Digital Sciences International) device in the femoral artery for arterial blood pressure monitoring. Glomerular filtration rate (GFR) was measured by iohexol clearance on the day before the beginning of HRP (Day −1). […]

“EVVPPQVLSEPNEEAGAALSPLPEVPPWTGEVSPAQR [VD, Vessel Dilator]” showed a level at 240 h of 41.1 ng/mL.
